Assay [1] has as its target recombinant human 11β-HSD type 1 enzyme (Homo sapiens, UniProt P28845). Briefly: 11β-HSD Type 1 Enzyme Assay (NADPH fluorescence). It counts as biochemical. Conditions: three hour incubation at room temperature, read-out: Human 11-βHSD1 IC50. The protocol:
11β-HSD Type 1 Enzyme Assay
Human 11β-HSD type 1 activity is measured by assaying NADPH production by fluorescence assay. Solid compounds are dissolved in DMSO to a concentration of 10 mM. Twenty microliters of each are then transferred to a column of a 96-well polypropylene Nunc plate where they are further diluted 50-fold followed by subsequent two-fold titration, ten times across the plate with additional DMSO using a Tecan Genesis 200 automated system. Plates are then transferred to a Tecan Freedom 200 system with an attached Tecan Temo 96-well head and an Ultra 384 plate reader. Reagents are supplied in 96-well polypropylene Nunc plates and are dispensed individually into black 96-well Molecular Devices High Efficiency assay plates (40 μL/well capacity) in the following fashion: 9 μL/well of substrate (2.22 mM NADP, 55.5 μM Cortisol, 10 mM Tris, 0.25% Prionex, 0.1% Triton X100), 3 μL/well of water to compound wells or 3 μL to control and standard wells, 6 μL/well recombinant human 11β-HSD type 1 enzyme, 2 μL/well of compound dilutions. For ultimate calculation of percent inhibition, a series of wells are added that represent assay minimum and maximum: one set containing substrate with 667 μM carbenoxolone (background), and another set containing substrate and enzyme without compound (maximum signal). Final DMSO concentration is 0.5% for all compounds, controls and standards. Plates are then placed on a shaker by the robotic arm of the Tecan for 15 seconds before being covered and stacked for a three hour incubation period at room temperature. Upon completion of this incubation, the Tecan robotic arm removes each plate individually from the stacker and places them in position for addition of 5 μL/well of a 250 μM carbenoxolone solution to stop the enzymatic reaction. Plates are then shaken once more for 15 seconds then placed into an Ultra 384 microplate reader (355EX/460EM) for detection of NADPH fluorescence.

Assay [2] has as its target T1, 11β-HSD1 in primary human aortic smooth muscle cells (AoSMC) (Homo sapiens, UniProt P28845).
T1 construct: containing 12 ng/mL hTNFα to induce expression of 11β-HSD1; endogenous in cells; host or cells: primary human aortic smooth muscle cells (AoSMC), induced with hTNFα
Briefly: Human Aortic Smooth Muscle Cell Assay (cortisone to cortisol conversion). It counts as cell-based. Conditions: AoSMC induced with hTNFα; cortisol measured after 16 hours with cortisone. The method, then:
Human Aortic Smooth Muscle Cell Assay
Primary human aortic smooth muscle cells (AoSMC) are cultured in 5% FBS growth medium to a passage number of 6, then pelleted by centrifugation and resuspended at a density of 9×10^4 cells/mL in 0.5% FBS assay medium containing 12 ng/mL hTNFα to induce expression of 11β-HSD1. Cells are seeded into 96-well tissue culture assay plates at 100 μL/well (9×10^3 cells/well) and incubated for 48 hours at 37° C., 5% CO2. Following induction, cells are incubated for 4 hours at 37° C., 5% CO2 in assay medium containing test compounds then treated with 10 μL/well of 10 μM cortisone solubilized in assay medium, and incubated for 16 hours at 37° C., 5% CO2. Medium from each well is transferred to a plate for subsequent analysis of cortisol using a competitive fluorescence resonance time resolved immunoassay. […] Higher levels of free cortisol result in diminishing energy transfer from the Europium-IgG to the APC-cortisol complex resulting in less APC fluorescence. Fluorescent intensities for Europium and APC are measured using a LJL Analyst AD. Europium and APC […] is measured using 360 nm excitation and 615 nm and 650 nm emission filters respectively. […] Fluorescent intensities measured for APC are modified by dividing by the Eu fluorescence (APC/Eu). […]

The subject of assay [3] is cortisone conversion to cortisol (11β-HSD1). Briefly: Acute In Vivo Cortisone Conversion Assay. The arrangement: species or system male C57BL/6 mice. Particulars: mice, oral dose 10 mg/kg, cortisone challenge s.c. 30 mg/kg, 16 hours post compound dose, serum cortisol. The protocol:
Acute In Vivo Cortisone Conversion Assay
In general, compounds are dosed orally into mice, the mice are challenged with a subcutaneous injection of cortisone at a set timepoint after compound injection, and the blood of each animal is collected some time later. Separated serum is then isolated and analyzed for levels of cortisone and cortisol by LC-MS/MS, followed by calculation of mean cortisol and percent inhibition of each dosing group. Specifically, male C57BL/6 mice are obtained from Harlan Sprague Dawley at average weight of 25 grams. Exact weights are taken upon arrival and the mice randomized into groups of similar weights. Compounds are prepared in 1% w-w HEC, 0.25% w-w polysorbate 80, 0.05% w-w Dow Corning antifoam #1510-US at various doses based on assumed average weight of 25 grams. Compounds are dosed orally, 200 μl per animal, followed by a subcutaneous dose, 200 μl per animal, of 30 mg/kg cortisone at 1 to 24 hours post compound dose. At 10 minutes post cortisone challenge, each animal is euthanized for 1 minute in a CO2 chamber, followed by blood collection via cardiac puncture into serum separator tubes. Once fully clotted, tubes are spun at 2500×g, 4° C. for 15 minutes, the serum transferred to wells of 96-well plates (Corning Inc, Costar #4410, cluster tubes, 1.2 ml, polypropylene), and the plates are frozen at −20° C. until analysis by LC-MS/MS. […]

recombinant human 11β-HSD type 1 enzyme, sequence (P28845 whole entry): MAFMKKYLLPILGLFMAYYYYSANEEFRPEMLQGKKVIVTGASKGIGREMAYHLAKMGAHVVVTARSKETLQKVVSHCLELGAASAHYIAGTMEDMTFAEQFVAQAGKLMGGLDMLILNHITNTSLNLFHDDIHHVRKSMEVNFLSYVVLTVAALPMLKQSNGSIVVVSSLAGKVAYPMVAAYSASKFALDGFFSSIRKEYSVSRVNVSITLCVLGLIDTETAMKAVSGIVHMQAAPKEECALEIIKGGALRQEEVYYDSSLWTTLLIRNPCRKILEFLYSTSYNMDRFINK
T1 sequence (P28845 whole entry): as above

The term IC50 denotes the concentration at which inhibition is half-maximal. As for `O=C(c1ccc(-c2cc(Cl)c(C[C@@H]3CCN([C@H]4CC[C@@H](F)CC4)C3=O)c(Cl)c2)cc1)N1CCC(C(F)(F)F)CC1` [Example 9, (R)-3-[3,5-Dichloro-4′-(4-trifluoromethyl-piperidine-1-carbonyl)-biphenyl-4-ylmethyl]-cis-1-(4-fluoro-cyclohexyl)-pyrrolidin-2-one], the IC50 is 584 nM in assay [1] and 5.5 nM in assay [2].

With `O=C(c1ccc(-c2cc(Cl)c(C[C@@H]3CCN(C4CCC(F)(F)CC4)C3=O)c(Cl)c2)cc1)N1CCC(C(F)(F)F)CC1` [Example 3, (R)-3-[3,5-Dichloro-4′-(4-trifluoromethyl-piperidine-1-carbonyl)-biphenyl-4-ylmethyl]-1-(4,4-difluoro-cyclohexyl)-pyrrolidin-2-one], the IC50 in assay [1] amounted to 686 nM; in assay [2] it was 55.1 nM. In assay [3], the “% Inhibition after 16 hours (dose of 10 (mg/kg))” value came out at 60.7%.

On to `O=C(c1ccc(-c2cc(Cl)c(C[C@@H]3CCN(C4CCC(F)(F)CC4)C3=O)c(Cl)c2)cc1)N1CCS(=O)(=O)CC1` [Example 4, (R)-3-[3,5-Dichloro-4′-(1,1-dioxo-1lamda*6*-thiomorpholine-4-carbonyl)-biphenyl-4-ylmethyl]-1-(4,4-difluoro-cyclohexyl)-pyrrolidin-2-one], for which the IC50 in assay [1] turned out to be 382 nM. In assay [3], the “% Inhibition after 16 hours (dose of 10 (mg/kg))” value is 50.2%.

The values above are taken from patent US7816349B2, “Substituted pyrrolidinones as inhibitors of 11-beta-hydroxysteroid dehydrogenase 1” (Eli Lilly and Company, priority 2006, dated 2010).
